Test results from PubChem BioAssay AID743118 (The Scripps Research Institute Molecular Screening Center, 2013).
pIC50: −log10 of the molar value.

How the values were obtained:
[1] = biological target: Acyl-protein thioesterase 1 (Homo sapiens) (UniProt O75608); test: APT1/APT2 inhibition IC50 by competitive ABPP – cell lysate, HeLa soluble proteome, fluorescence gel, in vitro, late-stage follow-up (AID 743118); settings: gel-based ABPP FP-Rh fluorescence, LYPLA1
[2] = biological target: Acyl-protein thioesterase 2 (Homo sapiens) (UniProt O95372); test: as above; settings: gel-based ABPP FP-Rh fluorescence, LYPLA2
Acyl-protein thioesterase 2 (Homo sapiens), sequence (O95372 whole entry, looked up): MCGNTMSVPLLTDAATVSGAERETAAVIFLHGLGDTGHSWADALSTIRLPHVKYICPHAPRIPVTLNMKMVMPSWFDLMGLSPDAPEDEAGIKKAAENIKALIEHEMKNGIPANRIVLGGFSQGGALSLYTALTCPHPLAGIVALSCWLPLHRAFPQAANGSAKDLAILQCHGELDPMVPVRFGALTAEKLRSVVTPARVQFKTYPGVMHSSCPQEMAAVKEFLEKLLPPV

Acyl-protein thioesterase 1 (Homo sapiens), sequence (O75608 whole entry, looked up): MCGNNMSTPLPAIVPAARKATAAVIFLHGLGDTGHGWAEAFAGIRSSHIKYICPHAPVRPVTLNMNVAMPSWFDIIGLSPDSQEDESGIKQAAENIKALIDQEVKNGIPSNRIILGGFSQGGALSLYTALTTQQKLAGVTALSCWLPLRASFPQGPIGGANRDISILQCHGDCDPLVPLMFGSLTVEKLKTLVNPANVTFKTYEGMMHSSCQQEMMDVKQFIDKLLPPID

pIC50 [1] | pIC50 [2] | Compound
7.04 | 6.66 | CC(C)(C)CC(=O)N1CCN2C(=O)N(OC(=O)N3CCC(CCc4ccc(Cl)cc4)CC3)C(=O)C2C1 (stereo not given)
6.65 | 6.42 | O=C(ON1C(=O)C2CN(C(=O)N3CCCC3)CCN2C1=O)N1CCC(CCc2ccc(Cl)cc2)CC1 (stereo not given)

Second part, the compound before the results:

Compound | pIC50 [1] | pIC50 [2]
O=C(ON1C(=O)C2CN(C(=O)N3CCCCC3)CCN2C1=O)N1CCC(CCc2ccc(Cl)cc2)CC1 (stereo not given) | 6.81 | 6.59
O=C(ON1C(=O)C2CN(C(=O)c3ccc(Br)cc3)CCN2C1=O)N1CCC(CCc2ccc(Cl)cc2)CC1 (stereo not given) | 6.51 | 6.14
O=C(ON1C(=O)C2CN(C(=O)N3CCOCC3)CCN2C1=O)N1CCC(CCc2ccc(Cl)cc2)CC1 (stereo not given) | 6.91 | 6.61
